Measurements published in PMC11714206, “Massively Parallel Screening of Toll/Interleukin‐1 Receptor (TIR)‐Derived Peptides Reveals Multiple Toll‐Like Receptors (TLRs)‐Targeting Immunomodulatory Peptides” (Advanced Science, 2024).

Target: T1, MyD88^TIR (Homo sapiens, UniProt Q99836)
T1 construct: MyD88 (residues 148–296); 6xHis; made in house; host or cells: E. coli BL21 (DE3)
Assay: T‐Surf phage library (P8 and P3) selection against MyD88^TIR, four rounds, NGS read counts
Assay type: binding
Conditions: for P8_MyD88 Rank (after) / P8_MyD88 Rank (before): P8 library; for P3_MyD88 Rank (after) / P3_MyD88 Rank (before): P3 library; for Population: 4th round of selection against MyD88 TIR, share of NGS reads
Outline: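 Four panning rounds on TIR domain adsorbed at 5 µg mL^−1; binding 1 h at 20–22 °C, elution with 100 mM HCl. Output: NGS read counts of round‐4 pools versus naïve library.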

[1] = P8_MyD88: rank by count after grouping
[2] = P8_MyD88: rank by count before grouping
[3] = 4R selection against MyD88, rank after grouping
[4] = 4R selection against MyD88, rank before grouping
[5] = selection against MyD88, rank after grouping
[6] = selection against MyD88, rank before grouping
[7] = P8_MyD88: rank by NGS read count after grouping
[8] = P8_MyD88: rank by NGS read count before grouping
[9] = selection against MyD88 TIR, rank by count after grouping
[10] = selection against MyD88 TIR, rank by count before grouping
[11] = P3_MyD88: rank by count after grouping
[12] = P3_MyD88: rank by count before grouping
[13] = selection against MyD88, rank by count after grouping
[14] = selection against MyD88, rank by count before grouping
[15] = P8_MyD88 pool: P8 T-Surf phage library

T1 sequence (Q99836 148-296): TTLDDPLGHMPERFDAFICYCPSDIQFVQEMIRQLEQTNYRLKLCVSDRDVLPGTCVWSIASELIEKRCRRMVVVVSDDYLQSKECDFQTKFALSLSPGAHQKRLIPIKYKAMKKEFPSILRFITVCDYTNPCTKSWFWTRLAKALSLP

TEPADTAFWDALWNKL
Rank (after) [1]: 188 | Rank (before) [2]: 237

IDDDHLTYLVRLLYSLHVT
P8_MyD88 Rank (after) [3]: 669 | P8_MyD88 Rank (before) [4]: 3630

DPQDLVWYYERLVSLF
Rank (after) [1]: 410 | Rank (before) [2]: 2717

DPQVLEWFYERLVSMF
P8_MyD88 Rank (after) [3]: 658 | P8_MyD88 Rank (before) [4]: 2657

DVLYWALTEAGLRGFR
P8_MyD88 Rank (after) [5]: 578 | P8_MyD88 Rank (before) [6]: 2557

DLLLCVFQTFFARLTE
Rank (after) [7]: 948 | Rank (before) [8]: 2592

WALNELLKILHARELF
Rank (after) [1]: 414 | Rank (before) [2]: 1546

DWVWDYLLPNLEGQR
P8_MyD88 Rank (after) [9]: 264 | P8_MyD88 Rank (before) [10]: 550

FLSYRSLEKRFGPIGP
Rank (after) [11]: 190 | Rank (before) [12]: 1344

DPHDLVWFYERLVSLF
P8_MyD88 Rank (after) [9]: 230 | P8_MyD88 Rank (before) [10]: 2631

QLIQQWIELHLHQLHL
P3_MyD88 Rank (after) [5]: 499 | P3_MyD88 Rank (before) [6]: 2880

EWIREQLRPALKNVC
P3_MyD88 Rank (after) [5]: 520 | P3_MyD88 Rank (before) [6]: 2142

DLQDLDWFYERLVSLL
P8_MyD88 Rank (after) [9]: 206 | P8_MyD88 Rank (before) [10]: 2595

WALDELLKILHADETM
P8_MyD88 Rank (after) [13]: 687 | P8_MyD88 Rank (before) [14]: 1492

YAFTGHLPRDLVLRGG
P3_MyD88 Rank (after) [5]: 491 | P3_MyD88 Rank (before) [6]: 1493

YASYDDNDYYWVTHVLLRH
Rank (after) [7]: 997 | Rank (before) [8]: 1799

NELVHVCFSNENSQVG
P3_MyD88 Rank (after) [9]: 275 | P3_MyD88 Rank (before) [10]: 3406

YLRADDSWFEEKLLFA
P8_MyD88 Rank (after) [5]: 574 | P8_MyD88 Rank (before) [6]: 2062

QDLEQFYERLISRILQ
Rank (after) [1]: 113 | Rank (before) [2]: 121 | Population [15]: 0.0181%

LKVESWHQAREKAGKL
Rank (after) [11]: 400 | Rank (before) [12]: 2518

VQWDDPWFWDKLAYA
Rank (after) [1]: 417 | Rank (before) [2]: 1009

YAFTCHLQRYLVQRGV
Rank (after) [11]: 118 | Rank (before) [12]: 1545

YYLDPSHLRKQTGSLAKAFA
P3_MyD88 Rank (after) [9]: 224 | P3_MyD88 Rank (before) [10]: 1463

SSFREGLWRLL*LSKK
Population (P3_MyD88 pool: P3 T-Surf phage library): 0.00291%

DPQTLQSFYERLVSLI
P8_MyD88 Rank (after) [5]: 557 | P8_MyD88 Rank (before) [6]: 3027

KEPERYQFAIPERDFP
P3_MyD88 Rank (after) [5]: 540 | P3_MyD88 Rank (before) [6]: 3681

PRDLEWFYEHLVSLIL
P8_MyD88 Rank (after) [13]: 736 | P8_MyD88 Rank (before) [14]: 3409

DPQDLDWFYEHLVSLL
Rank (after) [1]: 114 | Rank (before) [2]: 570

LGYQWNEWEYLVGIEE
P8_MyD88 Rank (after) [5]: 538 | P8_MyD88 Rank (before) [6]: 3327

LGYHLIVWEYFVGIED
P8_MyD88 Rank (after) [13]: 744 | P8_MyD88 Rank (before) [14]: 3227

HLLKEFYKKQITAFKD
P3_MyD88 Rank (after) [9]: 194 | P3_MyD88 Rank (before) [10]: 2773

YAASTWWHTVLARLMG
P8_MyD88 Rank (after) [5]: 540 | P8_MyD88 Rank (before) [6]: 1760

YTALTNSGCHTFRVND
P3_MyD88 Rank (after) [13]: 689 | P3_MyD88 Rank (before) [14]: 1657

DVLYWALTEAGIRVFR
Rank (after) [1]: 119 | Rank (before) [2]: 128 | Population [15]: 0.015%

DPQDLEWFYERPVSLF
P8_MyD88 Rank (after) [9]: 259 | P8_MyD88 Rank (before) [10]: 2853

YAASPWWLVELVQIVG
P8_MyD88 Rank (after) [13]: 752 | P8_MyD88 Rank (before) [14]: 1758

EWIREQLRPALKAQ
Rank (after) [11]: 147 | Rank (before) [12]: 651

GNDVLGRKGLRVGSKD
Rank (after) [11]: 437 | Rank (before) [12]: 1875

YASSIWALNELIRILE
Rank (after) [1]: 138 | Rank (before) [2]: 149 | Population [15]: 0.0108%
